Test results as given in PubChem BioAssay AID1963862 (Molecular Pharmacology Branch, DTP, NCI, 2024).

Tested on: KRAS patient-derived spheroids with HUVEC/MSC, viability
Assay: Anticancer human tumor 941728-121-R-J1-PDC patient-derived lung adenocarcinoma cell line growth inhibition [KRAS2]
Conditions: for IC50: curve of first compound; for viability, T/C: stronger effect = lower value
Text: Multicellular complex tumor spheroid response to RAS pathway inhibitors in combination with a targeted agents in patient-derived cell lines with oncogenic KRAS variants from multiple cancer types
A high-throughput screen of multi-cell type tumor spheroids was designed to identify active combinations of targeted small molecules and KRAS pathway inhibitors. Complex spheroids include a stromal component modeled by human endothelial cells (HUVEC) and fibroblasts modeled by human mesenchymal stem cells (MSCs). The concentration ranges selected for each drug and investigational agent were based upon clinically achievable concentrations if the clinical Cmax of the agent was known.
Compounds. The drugs and investigational agents: BI-3406 (NSC825286), BAY-293 (NSC824723), batoprotafib (TNO155; NSC825523), sotorasib (AMG 510; NSC818433), MRTX1257 (NSC819558), elimusertib (BAY 1895344; NSC800525), molibresib (GSK525762; NSC774829), temuterkib (LY3214996; NSC803410), venetoclax (NSC766270), alisertib (NSC759677), olaparib (NSC753686), talazoparib (NSC767125), erdafitinib (NSC781556), ipatasertib (NSC767898), cabozantinib (NSC761068), nintedanib (NSC756659), abemaciclib (NSC768073), docetaxel (NSC628503), trametinib (NSC758246), and sapanisertib (NSC764658) were obtained from the National Cancer Institute (NCI) Developmental Therapeutics Program Chemical Repository. The FDA-approved anticancer drug set is available from the Developmental Therapeutics Program. […] The stock solutions were prepared in dimethyl sulfoxide (DMSO, Sigma-Aldrich, St. Louis, MO, cat. D2650) at 800-fold the tested concentration and stored at -70 degrees C prior to their use. All drugs and investigational agents were tested over a range starting from a high concentration at or near the clinical Cmax and decreasing in half-log increments. If the clinical Cmax for an agent had not been determined, the highest concentration tested was 10 microM.
Cell Culture. All cells were maintained in an incubator at 37 degrees C and 5% CO2 with 95% humidity. The PDC lines were cultured according to standard operating procedures established by the NCI PDMR (https://pdmr.cancer.gov/sops/default.htm). Briefly, all PDCs were thawed and cultured in Matrigel-coated flasks prepared with a working solution of 1X Ham's F-12 nutrient mix, without supplementation (Invitrogen, Waltham, MA, cat. 11765054), 100 U/mL penicillin-streptomycin (Invitrogen, cat. 15140122), and 2.5% Matrigel (Corning Inc., Corning, NY, cat. 354248) for the first three passages. All PDCs were cultured in complete DMEM/F-12 media containing advanced DMEM/F-12 (Invitrogen, cat. 12634028), 4.9% defined fetal bovine serum, heat inactivated (HyClone Laboratories Inc., Logan, UT, cat. SH30070.03HI), 389 ng/mL hydrocortisone (Sigma-Aldrich, cat. H4001), 9.7 ng/mL human EGF recombinant protein (Invitrogen, cat. PHG0313), 23.4 microg/mL adenine (Sigma-Aldrich, cat. A2786), 97.3 U/mL penicillin-streptomycin (Invitrogen, cat. 15140122), 1.9 mM L-glutamine (Invitrogen, cat. 25030081), and 9.7 microM Y-27632 dihydrochloride (Tocris Bioscience, Bristol, United Kingdom, cat. 1254). The PDCs were cultured in complete DMEM/F12 media without 9.7 microM Y-27632 dihydrochloride for at least two passages prior to the screen. The established cell line HOP-62 was cultured in RPMI 1640 medium, HEPES (Invitrogen, cat. 22400105) with 10% defined fetal bovine serum (HyClone Laboratories Inc., cat. SH30070.03) and 2 mM L-glutamine (Invitrogen, cat. 25030081). The pooled donor HUVEC were cultured in endothelial cell growth medium 2 (PromoCell, Heidelberg, Germany, cat. C-22011) and the hMSC were cultured in mesenchymal stem cell growth medium 2 (PromoCell, cat. C-28009). For all experiments, HUVEC and hMSC were used at passages </=5, while the malignant cell lines were used at passages </=15. […]

[1] = second compound 0.1 µM, first compound 0.01 µM
[2] = second compound 0.1 µM, first compound 0.0316 µM
[3] = second compound 0.1 µM, first compound 0.1 µM
[4] = second compound 0.1 µM, first compound 0.316 µM
[5] = second compound 0.1 µM, first compound 1 µM
[6] = second compound 0.1 µM, first compound 3.16 µM
[7] = second compound 0.316 µM, first compound 0.01 µM
[8] = second compound 0.316 µM, first compound 0.0316 µM
[9] = second compound 0.316 µM, first compound 0.1 µM
[10] = second compound 0.316 µM, first compound 0.316 µM
[11] = second compound 0.316 µM, first compound 1 µM
[12] = second compound 0.316 µM, first compound 3.16 µM
[13] = second compound 1 µM, first compound 0.01 µM
[14] = second compound 1 µM, first compound 0.0316 µM
[15] = second compound 1 µM, first compound 0.1 µM
[16] = second compound 1 µM, first compound 0.316 µM
[17] = second compound 1 µM, first compound 1 µM
[18] = second compound 1 µM, first compound 3.16 µM
[19] = second compound 3.16 µM, first compound 0.01 µM
[20] = second compound 3.16 µM, first compound 0.0316 µM
[21] = second compound 3.16 µM, first compound 0.1 µM
[22] = second compound 3.16 µM, first compound 0.316 µM
[23] = second compound 3.16 µM, first compound 1 µM
[24] = second compound 3.16 µM, first compound 3.16 µM
[25] = second compound 10 µM, first compound 0.01 µM
[26] = second compound 10 µM, first compound 0.0316 µM
[27] = second compound 10 µM, first compound 0.1 µM
[28] = second compound 10 µM, first compound 0.316 µM
[29] = second compound 10 µM, first compound 1 µM
[30] = second compound 10 µM, first compound 3.16 µM
[31] = second compound 0.1 µM, first compound 10 µM
[32] = second compound 0.316 µM, first compound 10 µM
[33] = second compound 1 µM, first compound 10 µM
[34] = second compound 3.16 µM, first compound 10 µM
[35] = second compound 10 µM, first compound 10 µM
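Also: spheroids exposed to agents for seven days before readout.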

SMILES | IC50 (second compound 0.1 µM) [µM] | IC50 (second compound 0.316 µM) [µM] | IC50 (second compound 1 µM) [µM] | IC50 (second compound 3.16 µM) [µM] | IC50 (second compound 10 µM) [µM] | viability, T/C [2] [%] | viability, T/C [3] [%] | viability, T/C [4] [%] | viability, T/C [5] [%] | viability, T/C [6] [%] | viability, T/C [8] [%] | viability, T/C [9] [%] | viability, T/C [10] [%] | viability, T/C [11] [%] | viability, T/C [14] [%] | viability, T/C [15] [%] | viability, T/C [20] [%] | viability, T/C [21] [%] | viability, T/C [26] [%] | viability, T/C [27] [%] | further results
CC(=O)OC12COC1CC(O)C1(C)C(=O)C(O)C3=C(C)C(OC(=O)C(O)C(NC(=O)OC(C)(C)C)c4ccccc4)CC(O)(C(OC(=O)c4ccccc4)C21)C3(C)C (stereo not given) + C=CC(=O)N1CCN(c2nc(=O)n(-c3c(C)ccnc3C(C)C)c3nc(-c4c(O)cccc4F)c(F)cc23)C(C)C1 | < 0.01 | < 0.01 | < 0.01 | < 0.01 | < 0.01 | 17.1 | 19.8 | 18.1 | 21.7 | 20.2 | 17.4 | 17.4 | 20.2 | 20.4 | 19.2 | 16.4 | 21.9 | 20.9 | 24 | 29.5 | viability, T/C [1]: 19.7%; viability, T/C [7]: 18.4%; viability, T/C [12]: 18.3%; viability, T/C [13]: 16.6%; viability, T/C [16]: 19.1%; viability, T/C [17]: 20.6%; viability, T/C [18]: 20.1%; viability, T/C [19]: 16.4%; viability, T/C [22]: 19.5%; viability, T/C [23]: 23.8%; viability, T/C [24]: 19%; viability, T/C [25]: 25.9%; viability, T/C [28]: 26.2%; viability, T/C [29]: 28.8%; viability, T/C [30]: 25.5%
CN(C)C/C=C/C(=O)Nc1cc2c(Nc3ccc(F)c(Cl)c3)ncnc2cc1O[C@H]1CCOC1 + C=CC(=O)N1CCN(c2nc(=O)n(-c3c(C)ccnc3C(C)C)c3nc(-c4c(O)cccc4F)c(F)cc23)C(C)C1 | < 0.000316 | < 0.000316 | < 0.000316 | < 0.000316 | < 0.000316 | 15.9 | 14.3 | – | – | – | 16.7 | 16.4 | – | – | 16.5 | 15.9 | 18.9 | 17.3 | 20.7 | 19 | viability, T/C (second compound 0.1 µM, first compound 0.000316 µM): 18.1%; viability, T/C (second compound 0.1 µM, first compound 0.001 µM): 17.1%; viability, T/C (second compound 0.1 µM, first compound 0.00316 µM): 16.2%; viability, T/C [1]: 15.5%; viability, T/C (second compound 0.316 µM, first compound 0.000316 µM): 17%; viability, T/C (second compound 0.316 µM, first compound 0.001 µM): 17.6%; viability, T/C (second compound 0.316 µM, first compound 0.00316 µM): 15.6%; viability, T/C [7]: 15.3%; viability, T/C (second compound 1 µM, first compound 0.000316 µM): 20.6%; viability, T/C (second compound 1 µM, first compound 0.001 µM): 19.9%; viability, T/C (second compound 1 µM, first compound 0.00316 µM): 18.1%; viability, T/C [13]: 15.7%; viability, T/C (second compound 3.16 µM, first compound 0.000316 µM): 21.5%; viability, T/C (second compound 3.16 µM, first compound 0.001 µM): 20.9%; viability, T/C (second compound 3.16 µM, first compound 0.00316 µM): 19.4%; viability, T/C [19]: 17.9%; viability, T/C (second compound 10 µM, first compound 0.000316 µM): 26.3%; viability, T/C (second compound 10 µM, first compound 0.001 µM): 22.5%; viability, T/C (second compound 10 µM, first compound 0.00316 µM): 23.6%; viability, T/C [25]: 17.7%
COC(=O)c1ccc2c(C(=Nc3ccc(N(C)C(=O)CN4CCN(C)CC4)cc3)c3ccccc3)c(O)[nH]c2c1 + C=CC(=O)N1CCN(c2nc(=O)n(-c3c(C)ccnc3C(C)C)c3nc(-c4c(O)cccc4F)c(F)cc23)C(C)C1 | < 0.0316 | < 0.0316 | < 0.0316 | < 0.0316 | < 0.0316 | 24.5 | 19.7 | 16.4 | 12.7 | 10.2 | 22.8 | 20.1 | 18.5 | 12.8 | 26.3 | 21.2 | 27.1 | 25.1 | 41.2 | 30.2 | viability, T/C [31]: 7.41%; viability, T/C [12]: 8.05%; viability, T/C [32]: 6.62%; viability, T/C [16]: 16.8%; viability, T/C [17]: 14.4%; viability, T/C [18]: 7.55%; viability, T/C [33]: 5.43%; viability, T/C [22]: 20.8%; viability, T/C [23]: 17.8%; viability, T/C [24]: 6.67%; viability, T/C [34]: 8.37%; viability, T/C [28]: 31.6%; viability, T/C [29]: 29.6%; viability, T/C [30]: 4.3%; viability, T/C [35]: 0.23%
O=C(c1cc(Cc2n[nH]c(=O)c3ccccc23)ccc1F)N1CCN(C(=O)C2CC2)CC1 + C=CC(=O)N1CCN(c2nc(=O)n(-c3c(C)ccnc3C(C)C)c3nc(-c4c(O)cccc4F)c(F)cc23)C(C)C1 | < 0.0316 | < 0.0316 | < 0.0316 | < 0.0316 | < 0.0316 | 29.5 | 24.6 | 21.9 | 19.5 | 21.1 | 28.2 | 33.6 | 24.4 | 19.8 | 34.2 | 34.4 | 35.2 | 34.2 | 39.3 | 43.3 | viability, T/C [31]: 23.8%; viability, T/C [12]: 24.2%; viability, T/C [32]: 25.2%; viability, T/C [16]: 33.8%; viability, T/C [17]: 29.3%; viability, T/C [18]: 24.7%; viability, T/C [33]: 26.7%; viability, T/C [22]: 36%; viability, T/C [23]: 30.9%; viability, T/C [24]: 34.6%; viability, T/C [34]: 35.3%; viability, T/C [28]: 42.1%; viability, T/C [29]: 43.2%; viability, T/C [30]: 45%; viability, T/C [35]: 48.2%
